From ChEMBL document CHEMBL3608254, “Discovery of novel triazolobenzazepinones as γ-secretase modulators with central Aβ42 lowering in rodents and rhesus monkeys” (Bioorg Med Chem Lett, 2015)
Activity calls are given as the source filed them. No cut-off for these calls is given here.

How the values were obtained:
Mus musculus = test: Antialzheimer's disease activity in po dosed APP-YAC transgenic mouse assessed as reduction of amyloid beta-40/42 level in brain measured after 6 hrs; assay type: functional
Rattus norvegicus = test: Antialzheimer's disease activity in po dosed Sprague-Dawley rat assessed as reduction of amyloid beta-40/42 level in brain measured after 6 hrs; assay type: functional
[1] = Inhibition of gamma-secretase-mediated cleavage of NotchdeltaE in human HeLa cells expressing NotchdeltaE assessed as intracellular release of Notch intracellular domain (NICD)/N-terminal luciferase by luminescent method; assay type: cell-based
Gamma-secretase [2] = test: Inhibition of gamma-secretase in human SH-SY5Y cells expressing beta-APP C-terminal fragment SPA4CT assessed as decrease of amyloid beta-40 level by electrochemiluminescent method; assay type: cell-based
Gamma-secretase [3] = test: Inhibition of gamma-secretase in human SH-SY5Y cells expressing beta-APP C-terminal fragment SPA4CT assessed as decrease of amyloid beta-42 level by electrochemiluminescent method; assay type: cell-based
[4] = target: Voltage-gated inwardly rectifying potassium channel KCNH2 (Homo sapiens, UniProt Q12809)
Description: Binding affinity to human ERG expressed in HEK cells by MK-499 radioligand displacement assay

[5] = target: Sodium-dependent serotonin transporter (Homo sapiens, UniProt P31645); test: Inhibition of SERT (unknown origin)
[6] = Half life in rat liver microsomes; assay type: ADME

Chain of Voltage-gated inwardly rectifying potassium channel KCNH2 (Q12809 whole entry): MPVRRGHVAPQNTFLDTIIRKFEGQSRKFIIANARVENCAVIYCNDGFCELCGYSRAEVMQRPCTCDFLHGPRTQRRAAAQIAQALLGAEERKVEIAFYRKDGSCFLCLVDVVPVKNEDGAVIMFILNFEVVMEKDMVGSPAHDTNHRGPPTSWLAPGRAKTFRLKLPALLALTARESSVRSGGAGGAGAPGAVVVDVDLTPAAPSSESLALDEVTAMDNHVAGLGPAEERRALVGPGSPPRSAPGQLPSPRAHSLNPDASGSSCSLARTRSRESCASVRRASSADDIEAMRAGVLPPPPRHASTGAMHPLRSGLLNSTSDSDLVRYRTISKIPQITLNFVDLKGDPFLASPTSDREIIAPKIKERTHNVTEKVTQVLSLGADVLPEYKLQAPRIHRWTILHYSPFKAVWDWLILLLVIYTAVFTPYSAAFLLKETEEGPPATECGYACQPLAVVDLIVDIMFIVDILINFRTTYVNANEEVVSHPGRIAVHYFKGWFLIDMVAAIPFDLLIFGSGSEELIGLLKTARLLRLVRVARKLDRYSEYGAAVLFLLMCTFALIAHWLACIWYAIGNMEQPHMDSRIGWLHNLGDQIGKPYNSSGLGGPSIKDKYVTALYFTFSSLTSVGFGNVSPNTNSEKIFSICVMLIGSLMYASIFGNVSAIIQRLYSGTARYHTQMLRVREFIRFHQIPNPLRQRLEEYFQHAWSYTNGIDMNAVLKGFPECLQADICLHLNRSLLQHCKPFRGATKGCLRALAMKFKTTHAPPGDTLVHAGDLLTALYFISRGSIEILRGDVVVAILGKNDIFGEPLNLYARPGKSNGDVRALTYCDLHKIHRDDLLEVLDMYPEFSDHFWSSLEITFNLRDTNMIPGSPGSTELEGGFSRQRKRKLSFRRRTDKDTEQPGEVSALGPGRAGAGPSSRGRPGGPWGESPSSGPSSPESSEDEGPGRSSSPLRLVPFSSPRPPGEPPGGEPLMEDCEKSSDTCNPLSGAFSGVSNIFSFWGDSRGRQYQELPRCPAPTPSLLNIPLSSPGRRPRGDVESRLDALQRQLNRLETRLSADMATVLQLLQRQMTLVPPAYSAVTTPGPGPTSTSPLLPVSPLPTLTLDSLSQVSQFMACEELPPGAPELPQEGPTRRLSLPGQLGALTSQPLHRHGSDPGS
Chain of Sodium-dependent serotonin transporter (P31645 whole entry, looked up): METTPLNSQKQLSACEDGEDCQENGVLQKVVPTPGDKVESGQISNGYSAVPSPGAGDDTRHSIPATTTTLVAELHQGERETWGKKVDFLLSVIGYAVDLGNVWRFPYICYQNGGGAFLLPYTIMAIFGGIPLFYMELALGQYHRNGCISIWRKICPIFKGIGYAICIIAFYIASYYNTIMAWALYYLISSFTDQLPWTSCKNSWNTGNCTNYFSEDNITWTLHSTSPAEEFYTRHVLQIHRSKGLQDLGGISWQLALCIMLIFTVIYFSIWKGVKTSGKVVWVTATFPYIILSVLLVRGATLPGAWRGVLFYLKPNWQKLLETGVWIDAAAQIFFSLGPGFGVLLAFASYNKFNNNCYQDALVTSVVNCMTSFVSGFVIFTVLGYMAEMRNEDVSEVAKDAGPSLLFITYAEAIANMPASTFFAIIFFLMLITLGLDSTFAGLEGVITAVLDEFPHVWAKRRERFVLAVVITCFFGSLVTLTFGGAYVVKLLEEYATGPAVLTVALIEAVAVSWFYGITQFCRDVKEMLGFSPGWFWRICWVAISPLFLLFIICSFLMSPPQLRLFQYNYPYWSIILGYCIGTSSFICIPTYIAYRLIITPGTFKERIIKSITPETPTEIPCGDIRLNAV

In the case of `COc1cc(-c2cn(C3CCc4cc(F)ccc4N(CC(F)(F)F)C3=O)nn2)ccc1-n1cnc(C)c1` (stereo unspecified), the Activity (Mus musculus) is reported as “Active”, the Activity (Rattus norvegicus) is reported as “Active” and the IC50 [1] is reported as 34100 nM. The IC50 (Gamma-secretase [2]) was 190 nM, the IC50 (Gamma-secretase [3]) was 40 nM and the IC50 [4] was 2680 nM.
`COc1cc(-c2cn(C3CCc4ccccc4N(Cc4ccccn4)C3=O)nn2)ccc1-n1cnc(C)c1` (racemic) gave an IC50 [1] greater than 50000 nM, an IC50 (Gamma-secretase [2]) of 5400 nM and an IC50 (Gamma-secretase [3]) of 1080 nM.
With `COc1cc(-c2cn(C3CC[C@@H]4CCCC[C@H]4N(Cc4ccccc4)C3=O)nn2)ccc1-n1cnc(C)c1` (stereo partly specified) the inhibition [5] was “inactive”, the Activity (Mus musculus) was “Active” and the Activity (Rattus norvegicus) was “Active”. The IC50 [1] was greater than 50000 nM, the IC50 (Gamma-secretase [2]) was 470 nM and the IC50 (Gamma-secretase [3]) was 70 nM.
Compound `COc1cc(-c2cn(C3CCc4ccccc4N(Cc4ccncc4)C3=O)nn2)ccc1-n1cnc(C)c1` (racemic) has an IC50 [1] greater than 50000 nM, an IC50 (Gamma-secretase [2]) of 6750 nM and an IC50 (Gamma-secretase [3]) of 1190 nM.
With `COc1cc(-c2cn(C3CCc4ccccc4N(CC4(C)COC4)C3=O)nn2)ccc1-n1cnc(C)c1` (racemic) the IC50 [1] was greater than 50000 nM, the IC50 (Gamma-secretase [2]) was 7480 nM and the IC50 (Gamma-secretase [3]) was 1250 nM.
`COc1cc(-c2cn(C3CCc4ccccc4N(Cc4cccnc4)C3=O)nn2)ccc1-n1cnc(C)c1` (racemic) showed an IC50 [1] greater than 50000 nM, an IC50 (Gamma-secretase [2]) of 4690 nM and an IC50 (Gamma-secretase [3]) of 880 nM.
Compound `COc1cc(-c2cn(C3CCc4ccccc4N(CC(F)(F)F)C3=O)nn2)ccc1-n1cnc(C)c1` (stereo unspecified) has a half-life [6] of 35 min, an IC50 [1] greater than 50000 nM and an IC50 (Gamma-secretase [2]) of 320 nM. It also gave an IC50 (Gamma-secretase [3]) of 70 nM.
In the case of `COc1cc(-c2cn(C3CCc4ccccc4N(CCF)C3=O)nn2)ccc1-n1cnc(C)c1` (stereo unspecified), the IC50 [1] is reported as greater than 50000 nM, the IC50 (Gamma-secretase [2]) is reported as 3140 nM and the IC50 (Gamma-secretase [3]) is reported as 440 nM.
Work on `COc1cc(-c2cn(C3CCc4ccccc4N(Cc4ccccc4)C3=O)nn2)ccc1-n1cnc(C)c1` (racemic) yielded an IC50 [1] greater than 50000 nM, an IC50 (Gamma-secretase [2]) of 2010 nM and an IC50 (Gamma-secretase [3]) of 240 nM.
In the case of `COc1cc(-c2cn(C3CCc4c(ccc(Br)c4F)N(CC(F)(F)F)C3=O)nn2)ccc1-n1cnc(C)c1` (stereo unspecified), the Activity (Mus musculus) is reported as “Active”, the Activity (Rattus norvegicus) is reported as “Active” and the IC50 [1] is reported as greater than 50000 nM. It also gave an IC50 (Gamma-secretase [2]) of 50 nM, an IC50 (Gamma-secretase [3]) of 10 nM and an IC50 [4] of 530 nM.
For `COc1cc(-c2cn(C3CCc4cccnc4N(CC(F)(F)F)C3=O)nn2)ccc1-n1cnc(C)c1` (stereo unspecified), the Activity (Mus musculus) was “Active”, the Activity (Rattus norvegicus) was “Active” and the IC50 [1] was greater than 50000 nM. It also gave an IC50 (Gamma-secretase [2]) of 1340 nM, an IC50 (Gamma-secretase [3]) of 180 nM and an IC50 [4] of 8740 nM.
